Measured values taken from US5336673A, “3-substituted cephem compounds” (priority 1990, dated 1994).
In brackets after ≈: the same amount, converted by molar mass. Where two headings read alike, the source gives them in different places.

How the values were obtained:
Escherichia coli 1507E = experiment: Antibacterial activity, MIC by Agar dilution method, standard test strain 11; format: cell-based
Experimental: (§1) The antibacterial activity was determined by an Agar dilution method as described below.
(§2) That is, the two-fold serial dilutions of the antibacterial compounds (1000 μg compound/ml) were prepared and dispersed in Muller Hinton Agar in a petri dish to a concentration of 100~0.002 μg/ml. The culture broths of standard test strains were inoculated on the medium to a concentration 10^7 CFU/ml, and incubated at 37° C. for 18 hours. The concentration of compounds(I) at which the strains were not grown was regarded as minimum inhibition concentration (MIC).
(§3) The results of antibacterial activity test of the representative examples of the compound (I) against 20 standard test strains shown in terms of MIC were indicated in Table 1.

[1] = system: Streptococcus pyogenes A 77; experiment: Antibacterial activity, MIC by Agar dilution method, standard test strain 2; format: cell-based; settings: A77, 10^7 CFU/ml, 37° C., 18 hours
Experimental: as §1, §2, §3
2. Streptococcus pyogenes A 77

Staphyloccus aureus 285 = experiment: Antibacterial activity, MIC by Agar dilution method, standard test strain 5; format: cell-based; settings: 10^7 CFU/ml, 37° C., 18 hours
Experimental: as §1, §2, §3
5. Staphyloccus aureus 285

[2] = system: Gram-positive strains as well as Gram-negative strains including Pseudomonas; experiment: Antibacterial activity (summary in words); format: cell-based; settings: Gram-positive and Gram-negative strains
Experimental: as §1, §2

Escherichia coli O 55 = experiment: Antibacterial activity, MIC by Agar dilution method, standard test strain 7; format: cell-based
Experimental: as §1, §2, §3

Enterobacter cloacae P99 = experiment: Antibacterial activity, MIC by Agar dilution method, standard test strain 19; format: cell-based; settings: P99, 18 h
Experimental: as §1, §2, §3
19. Enterobacter cloacae P99

Acute toxcity test = settings: in vivo, male ICR-mouse, after 1 week
Experimental: Further, in order to illustrate the usefulness of the compounds (I) as a drug, compounds of Examples 12, 18 and 36 were tested for acute toxcity by using 4 weeks-old male ICR-mouse as a test animal.
the compounds were dissolved in physiological saline and phosphate buffered solution (pH 7.0), or if they were […], suspended in carboxymethylcellulose or gum Arabic and then mixed with phosphate buffered solution.
The solution or mixture was administered to the tested animals intravenously or subcutaneously and, after 1 week, the number of surviving animals was calculated.

[3] = system: Streptococcus pyogenes A 308; experiment: Antibacterial activity, MIC by Agar dilution method, standard test strain 1; format: cell-based; settings: A308, 10^7 CFU/ml, 37° C., 18 hours
Experimental: as §1, §2, §3
1. Streptococcus pyogenes A 308

Escherichia coli TEM = experiment: Antibacterial activity, MIC by Agar dilution method, standard test strain 10; format: cell-based
Experimental: as §1, §2, §3

[4] = system: Pseudomonas aeruginosa 1771M; experiment: Antibacterial activity, MIC by Agar dilution method, standard test strain 15; format: cell-based; settings: 18 h
Experimental: as §1, §2, §3
15. Pseudomonas aeruginosa 1771M

Escherichia coli DC O = experiment: Antibacterial activity, MIC by Agar dilution method, standard test strain 8; format: cell-based; settings: Escherichia coli DC O; 10^7 CFU/ml, 37° C., 18 hours; read-out: MIC
Experimental: as §1, §2, §3

[5] = system: Pseudomonas aeruginosa 9027; experiment: Antibacterial activity, MIC by Agar dilution method, standard test strain 12; format: cell-based; settings: 10^7 CFU/ml, 37° C., 18 hours
Experimental: as §1, §2, §3
12. Pseudomonas aeruginosa 9027

[6] = system: Staphylococcus aureus 503; experiment: Antibacterial activity, MIC by Agar dilution method, standard test strain 6; format: cell-based; settings: 10^7 CFU/ml, 37° C., 18 hours
Experimental: as §1, §2, §3
6. Staphylococcus aureus 503

[7] = system: Pseudomonas aeruginosa 1592E; experiment: Antibacterial activity, MIC by Agar dilution method, standard test strain 13; format: cell-based; settings: 10^7 CFU/ml, 37° C., 18 hours
Experimental: as §1, §2, §3
13. Pseudomonas aeruginosa 1592E

[8] = system: Pseudomonas aeruginosa 1771; experiment: Antibacterial activity, MIC by Agar dilution method, standard test strain 14; format: cell-based; settings: 10^7 CFU/ml, 37° C., 18 hours
Experimental: as §1, §2, §3
14. Pseudomonas aeruginosa 1771

[9] = system: Enterobacter cloacae 1321E; experiment: Antibacterial activity, MIC by Agar dilution method, standard test strain 20; format: cell-based
Experimental: as §1, §2, §3
20. Enterobacter cloacae 1321E

Klebsiella oxytoca 1082E = experiment: Antibacterial activity, MIC by Agar dilution method, standard test strain 17; format: cell-based; settings: 10^7 CFU/ml, 37° C., 18 hours
Experimental: as §1, §2, §3

[10] = system: Streptococcus faecium MD 86; experiment: Antibacterial activity, MIC by Agar dilution method, standard test strain 3; format: cell-based; settings: Enterococcus faecium, MD86, 10^7 CFU/ml, 37° C., 18 hours
Experimental: as §1, §2, §3
3. Streptococcus faecium MD 86

[11] = system: Staphylococcus aureus SG 511; experiment: Antibacterial activity, MIC by Agar dilution method, standard test strain 4; format: cell-based; settings: SG511, 10^7 CFU/ml, 37° C., 18 hours
Experimental: as §1, §2, §3
4. Staphylococcus aureus SG 511

[12] = system: Klebsiella aerogenes 1522E; experiment: Antibacterial activity, MIC by Agar dilution method, standard test strain 18; format: cell-based; settings: Klebsiella aerogenes 1522E; 10^7 CFU/ml, 37° C., 18 hours; read-out: MIC
Experimental: as §1, §2, §3
18. Klebsiella aerogenes 1522E

Salmonella typhimurium = experiment: Antibacterial activity, MIC by Agar dilution method, standard test strain 16; format: cell-based; settings: Salmonella enterica, 10^7 CFU/ml, 37° C., 18 hours
Experimental: as §1, §2, §3
16. Salmonella typhimurium

Escherichia coli DC 2 = experiment: Antibacterial activity, MIC by Agar dilution method, standard test strain 9; format: cell-based; settings: DC2; Escherichia coli DC 2; 10^7 CFU/ml, 37° C., 18 hours; read-out: MIC
Experimental: as §1, §2, §3

[13] = Escherichia coli 1507E, 10^7 CFU/ml, 37° C., 18 hours, read-out: MIC
[14] = sc, Subcutaneous administration
[15] = Escherichia coli TEM, 10^7 CFU/ml, 37° C., 18 hours, read-out: MIC
[16] = Enterobacter cloacae 1321E, 10^7 CFU/ml, 37° C., 18 hours, read-out: MIC

SMILES	MIC (Escherichia coli 1507E; [13]) [µg/mL]	MIC [1] [µg/mL]	MIC (Staphyloccus aureus 285) [µg/mL]	antibacterial activity (in words) [2]	MIC (Escherichia coli O 55; Escherichia coli, O55, 18 h) [µg/mL]	MIC (Enterobacter cloacae P99) [µg/mL]	LD50 at 168 h (Acute toxcity test; [14]) [mg/kg]	MIC [3] [µg/mL]	MIC [4] [µg/mL]	MIC (Escherichia coli DC O) [µg/mL]	MIC [5] [µg/mL]	MIC [6] [µg/mL]	MIC [7] [µg/mL]	MIC [8] [µg/mL]	MIC (Klebsiella oxytoca 1082E) [µg/mL]	MIC [10] [µg/mL]	MIC [11] [µg/mL]	MIC [12] [µg/mL]	MIC (Salmonella typhimurium) [µg/mL]	MIC (Escherichia coli DC 2) [µg/mL]	further results
CO/N=C(\C(=O)N[C@@H]1C(=O)N2C(C(=O)[O-])=C(C[n+]3cn(N)cn3)CS[C@H]12)c1csc(N)n1 [Example 12, (6R,7R)-7-[(Z)-2-(2-aminothiazol-4-yl)-2-methoxyiminoacetamido]-3-[(4-amino-1,2,4-triazol-2-ium)methyl]-ceph-3-em-4-carboxylate]	0.098 (≈ 0.204 µM)	0.007 (≈ 0.0146 µM)	3.12 (≈ 6.52 µM)	excellent antibacterial activity	0.025 (≈ 0.0521 µM)	100 (≈ 209 µM)	> 6000	0.007 (≈ 0.0146 µM)	0.195 (≈ 0.407 µM)	0.098 (≈ 0.204 µM)	12.5 (≈ 26.1 µM)	0.781 (≈ 1.63 µM)	6.25 (≈ 13 µM)	6.25 (≈ 13 µM)	1.56 (≈ 3.26 µM)	> 100	1.56 (≈ 3.26 µM)	0.049 (≈ 0.102 µM)	0.098 (≈ 0.204 µM)	0.097 (≈ 0.202 µM)	LD50 at 168 h (Acute toxcity test; Intravenous administration): > 4000 mg/kg; MIC (Escherichia coli TEM; Escherichia coli, 18 h): 0.049 µg/mL (≈ 0.102 µM); MIC ([9]; Enterobacter cloacae, 1321E, 18 h): 0.025 µg/mL (≈ 0.0521 µM)
CO/N=C(\C(=O)N[C@@H]1C(=O)N2C(C(=O)[O-])=C(C[n+]3cn(N)c4ccccc43)CS[C@H]12)c1csc(N)n1 [Example 19, (6R,7R)-7-[(Z)-2-(2-aminothiazol-4-yl)-2-methoxyiminoacetamido]-3-[(1-aminobenzimidazol-3-ium)methyl]-ceph-3-em-4-carboxylate]	0.391 (≈ 0.74 µM)	0.007 (≈ 0.0132 µM)	0.781 (≈ 1.48 µM)	excellent antibacterial activity	0.098 (≈ 0.185 µM)	> 100		0.013 (≈ 0.0246 µM)	0.781 (≈ 1.48 µM)	0.391 (≈ 0.74 µM)	50 (≈ 94.6 µM)	0.391 (≈ 0.74 µM)	25 (≈ 47.3 µM)	12.5 (≈ 23.6 µM)	3.12 (≈ 5.91 µM)	> 100	0.781 (≈ 1.48 µM)	0.195 (≈ 0.369 µM)	0.195 (≈ 0.369 µM)	0.391 (≈ 0.74 µM)	MIC (Escherichia coli TEM; [15]): 0.391 µg/mL (≈ 0.74 µM); MIC [9, 16]: 0.195 µg/mL (≈ 0.369 µM)
CC(C)(O/N=C(\C(=O)N[C@@H]1C(=O)N2C(C(=O)[O-])=C(C[n+]3cn(N)cn3)CS[C@H]12)c1csc(N)n1)C(=O)O [Example 36, (6R,7R)-7-[(Z)-2-(2-aminothiazol-4-yl)-2-(2-carboxyprop-2-oxyimino)acetamido]-3-[(4-amino-1,2,4-triazol-2-ium)methyl]-ceph-3-em-4-carboxylate]		0.049 (≈ 0.0888 µM)	3.12 (≈ 5.67 µM)	excellent antibacterial activity		100 (≈ 181 µM)	> 6000	0.098 (≈ 0.178 µM)	0.098 (≈ 0.178 µM)	0.781 (≈ 1.42 µM)	6.25 (≈ 11.3 µM)	1.56 (≈ 2.83 µM)	6.25 (≈ 11.3 µM)	1.56 (≈ 2.83 µM)	100 (≈ 181 µM)	25 (≈ 45.3 µM)	1.56 (≈ 2.83 µM)	0.781 (≈ 1.42 µM)	6.25 (≈ 11.3 µM)	0.195 (≈ 0.354 µM)	MIC (Escherichia coli 1507E; Escherichia coli, 1507E, 18 h): 1.56 µg/mL (≈ 2.83 µM); MIC (Escherichia coli O 55; O55, Escherichia coli O 55, 10^7 CFU/ml, 37° C., 18 hours, read-out: MIC): 0.195 µg/mL (≈ 0.354 µM); LD50 at 168 h (Acute toxcity test; Intravenous administration): > 4000 mg/kg; MIC (Escherichia coli TEM; [15]): 3.12 µg/mL (≈ 5.67 µM); MIC [9, 16]: 0.391 µg/mL (≈ 0.709 µM)
